# Reference: paper PMC11865978, “Cellular Activity of CQWW Nullomer-Derived Peptides” (ACS Omega, 2025)
# Test system: GSK-3
# Test: Reverse phase protein array (RPPA)
# Format: cell-based, human
# Conditions: peptides at 3 μM, 3 h and 24 h (peptide 7: 24 h only), seven cell lines; fold difference vs water control
# From the text: The phenotypic effect of the peptides was visualized by live cell imaging (Figure 1C, IncuCyte live cell imager) and also quantified via image analysis of cells labeled with the cell painting reagents (see Supporting Information) followed by image analysis using Cell Profiler (cellprofiler.org). Multiparametric outputs from Cell Profiler were processed using Phenonaut[46] [v 2.0.3] (see Jupyter notebook ‘Phenonaut_processing_of_nullomer_data.ipynb’ in the Aminonaut repository for methods and code used). […] Peptides 2, 5, and 7 were deemed to have the most merit for mode of action determination using reverse phase protein arrays (RPPAs) (see Supporting Information for methods). […]
# growth and stemness was further supported by the addition of laminin extracellular matrix (Cultrex 3446-005-01, 4-10 mg/mL) to the growth media and to create pre-coated flasks/384w plates. Cells were cultured in T75 cm2 flasks and passaged as follows: Glioma stem cells generally grow slowly (~60hrs doubling time, excepting GCGR-E57 cells ~24hrs) and lag phase was exacerbated by sparse seeding. Cell confluence is generally ~80 -90% prior to passaging, whereby the culture media was aspirated, the cells washed (PBS) and Accutase solution (Sigma A6964, 1 mL) was added to detach the cells, which were then incubated at 37 °C for <5 minutes. Cells were resuspended in media and centrifuged for 3 minutes at 300 × g. Resuspended cells were typically split 1:5, 1:8 (GCGR-E57 cells) and 1:2, 1:4 for the remainder of cell lines, depending on requirements . Cells were passaged every 4-7 days to maintain health and growth and discarded after 3 months, whereupon a fresh batch of cells […]
# Reverse Phase Protein Array (RPPA)
# Culture media was aspirated and cells washed with wash media. Accutase solution (1mL) was used to detach the cells which were then incubated at 37 °C for 5 minutes. 10 mL of wash media was added, and the cells were pipetted into a 15 mL conical tube, after which they were centrifuged for 3 minutes at 300× g to form a pellet. Supernatant was aspirated, and cells resuspended in 5 mL of wash media. A 10 μL sample of the cell suspension was pipetted onto the reading surface of a DeNovix CellDrop automated cell counter and the reading was used to dilute the suspension in complete media to 250,000 cells/mL. 2 mL of this suspension was added to each well of 6-well plates to seed plates at 500,000 cells per well. 2 plates of each cell type (GCGR-E13, GCGR-E21, GCGR-E28, GCGR-E31, GCGR-E34, GCGR-E57 and GCGR-NS9FB_B) were seeded, one each for two nullomer dosage […]
# timepoints (3 h and 24 h). The cells were incubated in the 6-well plates overnight, and dosing was carried out in the following morning. […]
substance,measurement,value
H-RRRRRCQWW-NH2 [Peptide 2],GSK-3 regulation in RPPA,downregulation of GSK-3β
